# Molecular target: human P2X3 receptor (Homo sapiens (Human), UniProt P56373)
# Test: Evaluation of human P2X3 receptor inhibitory activity (Test Example 1-1, FDSS 3000, 96-well, 50 nM ATP)
# Format: cell-based
# Conditions: human P2X3 receptor in C6BU-1 cells; Test Example 1-1 (compounds I-001 to I-300)
# Experimental: Stably expressing cell line (C6BU-1 cell transfected with human P2X3 receptor gene (GenBank accession number Y07683) was used. The cells were seeded in a 96-well microtiter plate at a concentration of 8000 cells/well and cultured in the medium (7.0% fetal bovine serum, 7.0% horse serum, 1% antibiotic and antifungal in DMEM) for one day at 37° C. under 5% carbon dioxide atmosphere. The medium was replaced with 4 μM Fluo-3-AM solution (20 mM HEPES, 137 mM NaCl, 5.27 mM KCl, 0.9 mM MgCl2, 1.26 mM CaCl2, 5.6 mM D-glucose, 2.5 mM probenecid, 1% BSA, and 0.08% Pluronic F-127, pH 7.5) and incubated at 37° C. under 5% dioxide carbon atmosphere for one hour. The plate was washed with washing buffer (20 mM HEPES, 137 mM NaCl, 5.27 mM KCl, 0.9 mM MgCl2, 1.26 mM CaCl2, 5.6 mM D-glucose, 2.5 mM probenecid, pH7.5), and each well was added with 40 μL of this buffer. The plate was placed in High-Throughput Screening System. FDSS 3000 (Hamamatsu Photonics K.K.). Measurement of fluorescence intensity by FDSS 3000 was started, and 40 μL of DMSO solutions containing different concentrations of the test compound as prepared by dilution with dilution buffer (20 mM HEPES, 137 mM NaCl, 5.27 mM KCl, 0.9 mM MgCl2, 1.26 mM CaCl2, 5.68 mM D-glucose, 2.5 mM probenecid, 0.1% Pluronic F-127, pH7.5) were dispensed to each well through the built-in automatic dispenser. Five minutes after, 50 nM ATP solution (50 μL) prepared by dilution with the dilution buffer was dispensed through the built-in automatic dispenser, and the measurement of fluorescence intensity was continued for 4 min. For each well, the specific maximum fluorescence intensity was calculated as the ratio of the maximum fluorescence intensity after addition of the ATP solution to the fluorescence intensity at the starting of the measurement. The 50% inhibitory concentration (IC50) was calculated under the assumption that the specific maximum fluorescence intensity without test compound is 0% inhibition and that the specific maximum fluorescence intensity when the dilution buffer was added in place of ATP solution is 100% inhibition, to evaluate the inhibitory activity of the test compound. FDSS software (Hamamatsu Photonics K.K.) was used for calculation of the specific maximum fluorescence intensity. IC50 was calculated using Microsoft Excel (Microsoft Corporation) and XLfit (idbs Ltd.)
# The data of the compounds I-001 to I-300 are the results by the method mentioned in Test Example 1-1, and the data of the compounds I-301 to I-483 are the results by the method mentioned in Test Example 1-2.
# Chain of human P2X3 receptor (P56373 whole entry): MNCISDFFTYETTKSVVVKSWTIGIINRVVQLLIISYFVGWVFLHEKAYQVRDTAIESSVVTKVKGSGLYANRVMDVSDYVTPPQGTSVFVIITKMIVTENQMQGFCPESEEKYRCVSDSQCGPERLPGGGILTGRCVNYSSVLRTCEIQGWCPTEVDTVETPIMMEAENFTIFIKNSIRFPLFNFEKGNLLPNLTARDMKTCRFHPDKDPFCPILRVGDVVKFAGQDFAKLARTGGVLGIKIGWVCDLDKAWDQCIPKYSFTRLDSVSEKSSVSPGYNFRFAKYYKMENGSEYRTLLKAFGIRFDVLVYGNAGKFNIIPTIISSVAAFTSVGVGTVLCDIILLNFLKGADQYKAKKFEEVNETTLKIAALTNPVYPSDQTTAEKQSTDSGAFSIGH
row,SMILES,IC50 [nM]
1,"Cc1cnc(-c2c[nH]/c(=N\c3ccc(Oc4cccc(C(=O)O)n4)cc3)n(Cc3ccc(Cl)cc3)c2=O)o1 [Compound I-290, 1-(4-chlorobenzyl)-2-[4-(6-hydroxycarbonyl-2-pyridyloxy)phenylamino]-5-(5-methyloxazol-2-yl)pyrimidin-6(1H)-one]",4
2,CCc1oc2ccc(/N=c3\[nH]cc(NS(=O)(=O)C4CCOCC4)c(=O)n3Cc3ccc(Cl)cc3)cc2c1C [Compound I-047],18
3,N#Cc1c[nH]/c(=N\c2ccc(Oc3ccc(F)cn3)cc2)n(Cc2ccc(Cl)cc2)c1=O [Compound I-261],498
4,Cc1cncc(Oc2ccc(Nc3ncc(NC(=O)C4CCOCC4)c(=O)n3Cc3ccc(Cl)cc3)cc2)n1 [Compound I-136],2
5,CC(c1ccc(Cl)cc1)n1cc(C(=O)NC2CCOCC2)c(=O)nc1Nc1ccc(Oc2cccc(F)n2)cc1 (centres unmarked) [Compound I-270],175
6,CCC(=O)Nc1c[nH]/c(=N\c2ccc(Oc3ccc(C(N)=O)nc3)cc2)n(Cc2ccc(Cl)cc2)c1=O [Compound I-095],8
7,O=c1c(-c2cccnc2)c[nH]/c(=N\c2ccc(Oc3ccon3)cc2)n1Cc1ccc(Cl)cc1 [Compound I-273],201
8,CN/C(=N\C#N)Nc1c[nH]/c(=N\c2ccc(Oc3ccon3)cc2)n(Cc2ccc(Cl)cc2)c1=O [Compound I-243],557
9,CCC(=O)Nc1c[nH]/c(=N\c2ccc(Oc3cnc(C(=O)O)cn3)cc2)n(Cc2ccc(Cl)cc2)c1=O [Compound I-094],10
10,Cc1cc(/N=c2\[nH]cc(NC(=O)C3CCOCC3)c(=O)n2Cc2ccc(Cl)cc2)ccc1Oc1ccon1 [Compound I-248],6
11,O=C(Nc1c[nH]/c(=N\c2ccc(Oc3ccon3)cc2)n(Cc2ccc(Cl)cc2)c1=O)C1COC1 [Compound I-184],14
12,O=c1c(CO)c[nH]/c(=N\c2ccc(Oc3cccc(F)n3)cc2)n1Cc1ccc(Cl)cc1 [Compound I-037],34
13,O=C(NC1CCOCC1)c1cn(Cc2ccccn2)c(Nc2ccc(Oc3cccc(F)n3)cc2)nc1=O [Compound I-295],618
14,CCCn1c(=O)cc(Nc2ccc(Oc3cnc(C(=O)O)nc3)cn2)n(Cc2ccc(Cl)cc2)c1=O [Compound I-201],96
15,CC(=O)Nc1cnc(Nc2ccc(Oc3cccnn3)cc2)n(Cc2ccc(Cl)cc2)c1=O [Compound I-069],68
16,O=C(Nc1c[nH]/c(=N\c2ccc(Oc3ccon3)cc2)n(Cc2ccc(Cl)cc2)c1=O)c1ccoc1 [Compound I-267],45
17,CCc1c[nH]/c(=N\c2ccc(Oc3cccc(C(=O)O)n3)cc2)n(Cc2ccc(Cl)cc2)c1=O [Compound I-144],35
18,Cn1cc(C(=O)Nc2c[nH]/c(=N\c3ccc(Oc4ccon4)cc3)n(Cc3ccc(Cl)cc3)c2=O)cn1 [Compound I-233],236
19,Cc1oncc1C(=O)Nc1c[nH]/c(=N\c2ccc(Oc3ccon3)cc2)n(Cc2ccc(Cl)cc2)c1=O [Compound I-269],16

row,SMILES,IC50 [nM]
1,CCc1oc2ccc(Nc3nc(=O)c(C(=O)O)cn3Cc3ccc(Cl)cc3)cc2c1C [Compound I-017],401
2,CCc1oc2ccc(Nc3ncc(NC(C)=O)c(=O)n3Cc3ccc(Cl)cc3)cc2c1C [Compound I-071],171
3,CCn1c(=O)cc(Nc2cc(C)c(Oc3cccc(C(=O)O)c3)cn2)n(Cc2ccc(Cl)cc2)c1=O [Compound I-203],336
4,CCC(=O)N(CC)c1c[nH]/c(=N\c2ccc(Oc3cccc(C(=O)O)n3)cc2)n(Cc2ccc(Cl)cc2)c1=O [Compound I-193],6
5,COC(=O)[C@@H](C)Cn1c(=O)cc(Nc2ccc(Oc3ccon3)cc2)n(Cc2ccc(Cl)cc2)c1=O [Compound I-114],17
6,CCc1oc2ccc(/N=c3\[nH]cc(CNC4CCOCC4)c(=O)n3Cc3ccc(Cl)cc3)cc2c1C [Compound I-049],225
7,CCOC(=O)c1c[nH]/c(=N\c2ccc(Oc3ccon3)cc2)n(Cc2ccc(Cl)cc2)c1=O [Compound I-096],64
8,Cc1ccc(Oc2ccc(Nc3ncc(NC(=O)C4CCOCC4)c(=O)n3Cc3ccc(Cl)cc3)cc2)nn1 [Compound I-137],1
9,CCOC(=O)c1cn(Cc2ccc(Cl)cc2)c(Nc2ccc3oc(CC)c(C)c3c2)nc1=O [Compound I-015],160
10,CCc1oc2ccc(/N=c3\[nH]cc(C(C)=O)c(=O)n3Cc3ccc(Cl)cc3)cc2c1C [Compound I-073],140
11,O=C(Nc1cnc(Nc2ccc(Oc3cccc(F)n3)cc2)n(Cc2ccc(Cl)cc2)c1=O)C1CCOCC1 [Compound I-134],2
12,Cc1cc(Oc2ccc(/N=c3\[nH]cc(NC(=O)C4CCOCC4)c(=O)n3Cc3ccc(Cl)cc3)cc2F)no1 [Compound I-249],6
13,CCn1c(=O)cc(Nc2ccc(Oc3cccc(C#N)n3)c(F)c2)n(Cc2ccc(Cl)cc2)c1=O [Compound I-011],2
14,CCn1c(=O)cc(Nc2ccc(Oc3cccc(C(N)=O)n3)c(C)c2)n(Cc2ccc(Cl)cc2)c1=O [Compound I-027],4
15,NC(=O)c1cc(Oc2ccc(Nc3nc(=O)c(C(=O)NC4CCOCC4)cn3Cc3ccc(Cl)cc3)cc2)ccn1 [Compound I-240],6
16,O=C(Nc1c[nH]/c(=N\c2ccc(Oc3ccon3)cc2)n(Cc2ccc(Cl)cc2)c1=O)C1CNC1 [Compound I-181],131
17,O=c1c(NC(=O)[C@H]2C[C@H](O)C2)c[nH]/c(=N\c2ccc(Oc3ccon3)cc2)n1Cc1ccc(Cl)cc1 [Compound I-183],6
18,O=C(NC1CCOCC1)c1cn(Cc2ccc(Cl)cc2)c(Nc2ccc(Oc3nccs3)cc2)nc1=O [Compound I-161],22
19,N#Cc1cnc(Oc2ccc(/N=c3\[nH]cc(NC(=O)C4CCOCC4)c(=O)n3Cc3ccc(Cl)cc3)cc2)cn1 [Compound I-143],2

row,SMILES,IC50 [nM]
1,Cc1ccc(Cn2cc(C(=O)NC3CCOCC3)c(=O)nc2Nc2ccc(Oc3cccc(F)n3)cc2)cc1 [Compound I-282],6
2,N#Cc1ccc(Oc2ccc(Nc3nc(=O)c(C(=O)NC4CCOCC4)cn3Cc3ccc(Cl)cc3)cc2)cn1 [Compound I-229],7
3,O=C(Nc1cnc(Nc2ccc(Oc3ccc(F)cn3)cc2)n(Cc2ccc(Cl)cc2)c1=O)C1CCOCC1 [Compound I-133],1
4,CN(C)C(=O)c1c[nH]/c(=N\c2ccc(Oc3cccc(C(=O)O)n3)cc2)n(Cc2ccc(Cl)cc2)c1=O [Compound I-222],47
5,N#C/N=C(/Nc1c[nH]/c(=N\c2ccc(Oc3ccon3)cc2)n(Cc2ccc(Cl)cc2)c1=O)Oc1ccccc1 [Compound I-237],219
6,Cc1cc(Nc2nc(=O)c(C(=O)NC3CCOCC3)cn2Cc2ccc(Cl)cc2)ccc1Oc1ncccc1F [Compound I-160],26
7,CCCn1c(=O)cc(Nc2ccc(Oc3cnc(C#N)nc3)cn2)n(Cc2ccc(Cl)cc2)c1=O [Compound I-196],37
8,NC(=O)c1ccc(Oc2ccc(Nc3nc(=O)c(C(=O)NC4CCOCC4)cn3Cc3ccc(Cl)cc3)cc2)nc1 [Compound I-239],5
9,Cc1nsc(Oc2ccc(/N=c3\[nH]cc(C(=O)N(C)C)c(=O)n3Cc3ccc(Cl)cc3)cc2)n1 [Compound I-221],65
10,O=c1c(-c2cccnc2O)c[nH]/c(=N\c2ccc(Oc3ccon3)cc2)n1Cc1ccc(Cl)cc1 [Compound I-194],658
11,CCc1c[nH]/c(=N\c2ccc(Oc3ncc(C(=O)O)s3)cc2)n(Cc2ccc(Cl)cc2)c1=O [Compound I-087],29
12,CCOC(=O)c1c[nH]/c(=N\c2ccc(Oc3ccc(F)cn3)cc2)n(Cc2ccc(Cl)cc2)c1=O [Compound I-128],35
13,CCOC(=O)c1sc(Oc2ccc(Nc3cc(=O)n(CC)c(=O)n3Cc3ccc(Cl)cc3)cc2)nc1C [Compound I-036],22
14,O=C(NC1CCOCC1)c1c[nH]/c(=N\c2ccc(Oc3cccc(F)n3)cc2)n(Cc2ccc(Cl)cc2)c1=O [Compound I-042],14
15,O=C(Nc1c[nH]/c(=N\c2ccc(Oc3ccon3)cc2)n(Cc2ccc(Cl)cc2)c1=O)C1CCNCC1 [Compound I-186],72
16,CCn1c(=O)cc(Nc2cnc(Oc3cccc(C(=O)O)c3)cn2)n(Cc2ccc(Cl)cc2)c1=O [Compound I-083],168
17,CCOC(=O)c1cccc(Oc2ccc(Nc3cc(=O)n(CC)c(=O)n3Cc3ccc(Cl)cc3)nc2)c1 [Compound I-044],103
18,CCOC(=O)c1cnc(Nc2ccc(Oc3cccc(C(=O)O)n3)cc2)n(Cc2ccc(Cl)cc2)c1=O [Compound I-055],2

# Reference: patent publication US9550763B2, “Heterocyclic ring and carbocyclic derivative” (Shionogi & Co., Ltd., priority 2012, dated 2017)
